From US20100158829A1, “Method and Composition for Color Modulation” (Conopco, Inc., d/b/a UNILEVER, priority 2008, published 2010)

Assays:
D-dopachrome tautomerase = D-dopachrome tautomerase (Homo sapiens, UniProt P30046); assay: D-dopachrome tautomerase (DDT) enzyme assay with D-dopachrome substrate; type: biochemical; conditions: for D-Dopachrome Tautomerase at 100 μM (% of control): test compound 100 μM, remaining activity, 100% = inactive; for IC50: DDT assays similar to those described in Example 2
Protocol: A 125-mM sodium periodate working solution was prepared in H2O in an amber 5-mL vial (prepared fresh on the day of the assay). 4.3 mg of dihydroxy-D-phenylalanine (D-dopa) were weighed into a 20 mL scintillation vial equipped with a pierceable septa screw cap. With the use of a liquid transfer cannula, 12 mL of degassed buffer was first transferred into a 15 mL graduated conical tube and subsequently poured into the scintillation vial containing the D-dopa. The D-dopa was dissolved for ten (10) minutes while stirring under nitrogen. The resulting working solution was 1.8 mM. Once sodium periodate was added to the dissolved D-dopa, the resulting D-dopachrome was utilized immediately to prevent substrate degradation.
Concentrations were based on a final reaction volume of 200 μL. A total of 75 μL of buffer (100 mM potassium phosphate, pH 6.8) was added to each well of a clear flat bottom 96-well microtiter plate. To the blank control wells (no DDT), 25 μL of 10% glycerol/assay buffer was added. DMSO (5 μL) was added to blank wells and to the enzyme control wells (DDT alone with no inhibitors). […] To the remaining wells, 5 μL of test compounds diluted in DMSO was added for a final concentration of 100 μM. Lastly, 25 μL of DDT in assay buffer was added to all wells except for the substrate control wells. The concentration of DDT utilized was such that it produced a ΔOD475 of approximately 1.0 at the 40-second read time point between the blank and total.
With the use of a 1 mL syringe, 0.33 ml of the 125 mM sodium periodate working solution was added to the dissolved D-dopa and stirred for 30 seconds. The resulting D-dopachrome was transferred to a reagent reservoir and 100 μL immediately added to the first row of interest in the assay plate (resulting final substrate concentration in the assay is 0.9 mM). The plate was shaken for 2 seconds on a Spectromax plate reader and the decrease in absorbance measured over 40 seconds. 100 μL of D-dopachrome was added to the next row of interest in the assay plate and this procedure was repeated until four (4) rows were assayed and read. Often approximately 6-7 minutes, the remaining substrate was discarded.
Percent inhibition was calculated utilizing the OD values at the 40-second time point according to the following formula:
• A=percent inhibition of the unknown; • B=average percent inhibition for the 4 positive control values (within 4 distinct assay rows) generated with a single batch of substrate also used to assay the unknown of interest; • C=percent inhibition for the positive control for the assay row of interest which contains the unknown compound of interest.

mushroom tyrosinase [1] = assay: Mushroom tyrosinase assay with L-dopa; type: biochemical; conditions: for Mushroom Tyrosinase at 100 μM (% of control): test compound 100 μM, percent of untreated control reaction
Protocol: A stock solution of 10 mM L-dopa (3,4-Dihydroxyphenylalanine, Sigma Cat #D9628) was prepared in sodium phosphate buffer (100 mM, pH 7.0) along with a stock solution of 0.1 mg/mL (605 units/ml) mushroom tyrosinase (Sigma cat #T7755) in phosphate buffer and stored at […] 4° C. until use.
Test compounds (dissolved in DMSO) were first diluted in phosphate buffer to working concentrations of 1 mM. For each test, 150 μL of phosphate buffer, 10 μL of the L-dopa stock and 20 μL of each compound were added to each well of a 96 well clear bottom microtiter plate and mixed three times. 20 μL of mushroom tyrosinase stock solution was added, mixed and the absorbency read at 475 nm at 0, 2, 4, and 6.5 minutes. The points were plotted as absorbency vs. time and the slope of the line calculated. Values are expressed as the percent of the respective untreated control reaction. The final DMSO concentration in each sample was less than or equal to 1.0%

[2] = tested on: Melanoderm tissue equivalent model MEL-300 containing melanocytes; assay: Melanoderm tissue equivalent model, total melanin content; type: cell-based; conditions: 10 μM in maintenance medium, 14 days
Protocol: Melanoderm™ tissue equivalent model MEL-300 (MatTek: Ashland, Mass.) containing melanocytes obtained from dark skin individuals were cultured as per supplier instructions. Components were added to the maintenance medium phase (no topical treatments) at a final concentration of 10 μM for 14 days at which time the experiment was terminated and the tissues assessed for melanin content. Medium and treatments were changed three times per week. DMSO was utilized as the vehicle control and all treatments were performed in duplicate.
For quantification of total melanin, each Melanoderm was placed into an individual Eppendorf tube (2 mL) into which 250 μL of Solvable™ tissue solubilizer (Packard Bioscience Co., Cat#6NE9100) was added. Each tube was vortexed and incubated at 60° C. for 18 hours. After about […], each sample was centrifuged (5-minutes at 13,000 RPMs) to remove any particulates. One hundred μL of supernatant were transferred to a 96 well microtiter plate and the absorbance read at 490 nm. Total melanin content was calculated from a standard curve using synthetic melanin (Sigma Cat#M8631).
All the following components were tested at a final concentration of 10 μM: […]

mushroom tyrosinase [3] = assay: Mushroom tyrosinase assay with L-dopa; type: biochemical; conditions: Tested at 1 μM

D-dopachrome tautomerase, sequence (P30046 2-118 limits assumed): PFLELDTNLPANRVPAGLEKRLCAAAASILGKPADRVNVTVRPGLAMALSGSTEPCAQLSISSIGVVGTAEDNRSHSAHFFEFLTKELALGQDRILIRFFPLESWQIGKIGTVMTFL

D-Dopachrome Tautomerase at 100 μM (% of control) (D-dopachrome tautomerase)	Mushroom Tyrosinase at 100 μM (% of control) (mushroom tyrosinase [1])	Molecule	other results
69.9% of control	98.6% of control	CC(C)(C)NC(=O)C(c1ccc(F)cc1)N(Cc1ccccc1)C(=O)c1snc(C(N)=O)c1N (stereo not drawn) [N5-((tert-butylcarbamoyl)(4-fluorophenyl)methyl)-4-amino-N5-benzylisothiazole-3,5-dicarboxamide]	
52.3% of control	101.9% of control	CC(C)(C)NC(=O)C(c1ccc(F)cc1)N(C(=O)c1snc(C(N)=O)c1N)c1ccccc1 (stereo not drawn) [N5-((tert-butylcarbamoyl)(4-fluorophenyl)methyl)-4-amino-N5-phenylisothiazole-3,5-dicarboxamide]	
48.0% of control	106.1% of control	CC(C)(C)NC(=O)C(c1ccc(F)cc1)N(C(=O)c1snc(C(N)=O)c1N)c1cccc(F)c1 (stereo not drawn) [N5-((tert-butylcarbamoyl)(4-fluorophenyl)methyl)-4-amino-N5-(3-fluorophenyl)isothiazole-3,5-dicarboxamide]	
64.3% of control	102.5% of control	CCCC(C(=O)NC(C)(C)C)N(Cc1ccccc1Cl)C(=O)c1snc(C(N)=O)c1N (stereo not drawn) [N-5-(1-(tert-butylcarbamoyl)butyl)-N5-(2-chlorobenzyl)-4-aminoisothiazole-3,5-dicarboxamide]	
65.3% of control	100.0% of control	CNC(=O)c1ccccc1NC(=O)c1c(O)nc2c(c1O)CCCC2 [N-(2-(methylcarbamoyl)phenyl)-5,6,7,8-tetrahydro-2,4-dihydroxyquinoline-3-carboxamide]	

Second part, the molecule before the results:

Molecule	D-Dopachrome Tautomerase at 100 μM (% of control) (D-dopachrome tautomerase)	Mushroom Tyrosinase at 100 μM (% of control) (mushroom tyrosinase [1])	other results
CCOC(=O)c1c(NC(=O)/C=C/C(=O)O)sc2c1CCC(C(C)(C)CC)C2 (stereo not drawn) [(E)-3-(3-(ethoxycarbonyl)-6-tert-pentyl-4,5,6,7-tetrahydrobenzo[b]thiophen-2-ylcarbamoyl)acrylic acid]	14.9% of control	90.8% of control	
NC(=O)c1nsc(C(=O)N(c2ccccc2)C(C(=O)NC2CCCC2)c2cccs2)c1N (stereo not drawn) [N5-((cyclopentylcarbamoyl)(thiophen-2-yl)methyl)-4-amino-N5-phenylisothiazole-3,5-dicarboxamide]	66.8% of control	101.8% of control	
sodium isostearoyl lactylate			IC50 (D-dopachrome tautomerase): 14.6 µM; Reduction in Melanin [2]: 6.2%
CC(C)CC(C(=O)NC1CCCC1)N(C(=O)c1snc(C(N)=O)c1N)c1ccc(F)cc1 (stereo not drawn) [N5-(1-(cyclopentylcarbamoyl)-3-methylbutyl)-4-amino-N5-(4-fluorophenyl)isothiazole-3,5-dicarboxamide]	65.7% of control	100.6% of control	
CCc1ccc(O)cc1O [4-Ethyl Resorcinol, reference compound]	100% of control		activity in the DDT assay (in words) (D-dopachrome tautomerase): inactive; inhibition of mushroom tyrosinase (in words) (mushroom tyrosinase [1]): potent inhibitor; Mushroom Tyrosinase (% of control) (mushroom tyrosinase [3]): 42.3% of control
O=c1c(O)c(-c2ccc(O)cc2O)oc2cc(O)cc(O)c12 [Morin, 2-(2,4-dihydroxyphenyl)-3,5,7-4H-1-benzopyran-4-one]			IC50 (D-dopachrome tautomerase): 27.4 µM; Reduction in Melanin [2]: 7.2%
CC(C)CC(C(=O)NC1CCCC1)N(C(=O)c1snc(C(N)=O)c1N)c1cccc(F)c1 (stereo not drawn) [N5-(1-(cyclopentylcarbamoyl)-3-methylbutyl)-4-amino-N5-(3-fluorophenyl)isothiazole-3,5-dicarboxamide]	64.9% of control	105.2% of control	
O=C(O[C@@H]1Cc2c(O)cc(O)cc2O[C@@H]1c1cc(O)c(=O)c2c(O)c(O)cc([C@H]3Oc4cc(O)cc(O)c4C[C@H]3OC(=O)c3cc(O)c(O)c(O)c3)c2c1)c1cc(O)c(O)c(O)c1 [Theaflavin Digallate]			Reduction in Melanin [2]: 26.6%
O=c1c(-c2cc(O)c(O)c(O)c2)coc2cc(O)c(O)c(O)c12 [Irigenol, 5,6,7-trihydroxy-3-(3,4,5-trihydroxyphenyl)-4H-1-benzopyran-4-one]			IC50 (D-dopachrome tautomerase): 37.4 µM; Reduction in Melanin [2]: 7.0%
CCc1ccc(NC(=O)/C=C/C(=O)O)cc1 [(E)-3-(4-ethylphenylcarbamoyl)acrylic acid]	40.5% of control	89.4% of control	
CC(C)CC(C(=O)NC1CCCC1)N(C(=O)c1snc(C(N)=O)c1N)c1ccccc1 (stereo not drawn) [N5-(1-(cyclopentylcarbamoyl)-3-methylbutyl)-4-amino-N5-phenylisothiazole-3,5-dicarboxamide]	69.2% of control	89.4% of control	
Oc1nc2cc(I)c(I)cc2o1 [5,6-diiodobenzo[d]oxazol-2-ol]	56.1% of control	99.3% of control	
CC(C)(C)NC(=O)C(c1c[nH]c2ccccc12)N(C(=O)c1snc(C(N)=O)c1N)c1ccccc1 (stereo not drawn) [N5-((tert-butylcarbamoyl)(1H-indol-3-yl)methyl)-4-amino-N5-phenylisothiazole-3,5-dicarboxamide]	40.9% of control	96.0% of control	
O=C1C=CC(=O)c2c(O)cccc21 [Juglone, 5-hydroxy-1,4-naphthalenedione]			IC50 (D-dopachrome tautomerase): 14.9 µM; Reduction in Melanin [2]: 32.8%
CC(C)(C)C1CCc2c(sc(NC(=O)/C=C/C(=O)O)c2C#N)C1 (stereo not drawn) [(E)-3-(6-tert-butyl-3-cyano-4,5,6,7-tetrahydrobenzo[b]thiophen-2-ylcarbamoyl)acrylic acid]	8.4% of control	88.2% of control	
CCCCC/C=C\C/C=C\C/C=C\C/C=C\CCCC(=O)O [arachidonic acid, reference compound]			inhibition at 75 µM (D-dopachrome tautomerase; 75 μM final concentration, read-out: inhibition of DDT (positive control)): ~50%
